Experimental data from patent US20110054039A1, “USE OF ALKYL SULFATES OR SULFONATES AGAINST PROPIONIBACTERIUM ACNES” (priority 2008, published 2011).
≈ marks a conversion by molar mass, not a printed value. Counter-ions that a name gives are not always drawn. Like-named read-outs stand apart in the source and are kept apart here.

Legend:
Type in all cases: cell-based
[1] = tested on: Propionibacterium acnes NCTC 737; assay: Minimum Inhibitory Concentration (MIC) assay, broth microdilution; settings: P. acnes NCTC 737, Wilkins-Chalgren broth pH 6.0, anaerobic, 37° C., 72 hours
Protocol: (§1) The test micro-organism represented the cutaneous propionibacteria. […] The propionibacteria are clinically significant due to their involvement in acne. This is a very common, complex and multi-factorial skin disease in which P. acnes and other Propionibacterium spp. […] They are also opportunistic pathogens in compromised hosts.
(§2) The propionibacteria were cultured and maintained on Wilkins-Chalgren Anaerobe Medium (agar and broth) at pH 6.0; all cultures were incubated anaerobically at 37° C. for 72 hours.
This is a standard international method for quantitatively assessing the antimicrobial activity of a compound in a liquid medium. […] The culture media were as described above.
The wells were inoculated with a liquid suspension of freshly grown micro-organism and incubated under the conditions described above. After incubation, the microtitre plate was examined visually (with the aid of a light box) for cloudiness in each well, which would indicate microbial growth. The MIC value was recorded as the lowest concentration of test compound required to inhibit microbial growth, ie the lowest concentration for which the liquid in the well remained clear.
The assays included both negative (culture medium with no micro-organisms) and positive (culture medium plus diluting solvent plus micro-organism) controls.
(§3) MIC, MBC and DDA assays, as described above, were carried out using as the test compound sodium n-tetradecyl sulphate (STS, ex Sigma Aldrich, UK), dissolved in distilled water. All the experiments were conducted in triplicate. For the DDA experiments, 200 μg of the test compound was loaded onto each disc.
(§4) The MIC/MBC experiments were conducted in triplicate, with the exception of those for SDS and ADS which were conducted in duplicate. The DDAs were performed either in triplicate, in which case standard deviations are quoted in parentheses, or as a single replicate. For the DDA experiments, 200 μg of the test compound was loaded onto each disc.

[2] = tested on: Propionibacterium acnes NCTC 737; assay: Minimum Biocidal (Bactericidal) Concentration (MBC) assay; settings: P. acnes NCTC 737; for MBC: sub-culture on antibiotic-free agar after MIC assay
Protocol: as §1, §2
This assay, normally carried out after an MIC assay, determines the minimum concentration of a compound that is lethal to the micro-organism being tested.
These samples were then individually sub-cultured on antibiotic-free agar medium, under the incubation conditions described above. Following incubation they were examined visually for microbial growth.
as §3, §4

[3] = tested on: Propionibacterium acnes NCTC 737; assay: Disc Diffusion Assay (DDA); settings: Cutibacterium acnes, NCTC737; P. acnes NCTC 737; 200 μg of test compound per disc; read-out: DDA (diameter of zone of inhibition)
Protocol: as §1, §2
This is an internationally recognised standard method for qualitatively assessing the antimicrobial activity of a compound.
(§5) A sterile paper disc was impregnated with a sample of the test compound in a suitable solvent and 30 minutes allowed for the solvents to evaporate (where possible). The disc was then placed on an agar plate onto which the test micro-organism had been inoculated. The plate was then incubated under the conditions described above, following which it was examined visually for signs of microbial growth. […] The diameter of this zone of ‘inhibition’ was measured using a ProtoCOL™ automated zone sizer (Synbiosis, Cambridge, UK).
as §3, §4

[4] = tested on: Propionibacterium acnes NCTC 737; assay: Supplemented Disc Diffusion Assay (agar with salt or lipid); settings: Cutibacterium acnes, NCTC737, 72 h, P. acnes NCTC 737, 200 μg per disc
Protocol: as §1, §2, §5
Performance under these conditions can provide a more reliable indication of activity on topical application.
as §3, §4

[5] = Cutibacterium acnes, NCTC737, read-out: MIC
[6] = Cutibacterium acnes, NCTC737, read-out: MBC
[7] = agar supplemented with sodium chloride (100 mM), read-out: DDA + salt
[8] = agar supplemented with triolein at 1% v/v, read-out: DDA + lipid

`CCCCC(CC)CCC(CC(C)C)OS(=O)(=O)O` (stereo not shown) [7-ethyl-2-methyl-4-hendecanol sulphate sodium salt] was tested, and the MIC [1, 5] was 31.2 µg/mL, the MBC [2, 6] was 62.5 µg/mL and the MIC/MBC ratio [2] was 0.5. It also gave a zone of inhibition at 200 µg/disc [3] of 28.5 mm, a zone of inhibition at 200 µg/disc [4, 7] of 30.8 mm and a zone of inhibition at 200 µg/disc [4, 8] of 28.6 mm.
With `CCCCCCCCCCCCOS(=O)(=O)O.N` [Ammonium dodecyl sulphate (ADS), ammonium dodecyl sulphate] the MIC [1, 5] was 31.2 µg/mL, the MBC [2, 6] was 125 µg/mL and the MIC/MBC ratio [2] was 0.25. For the same molecule, the zone of inhibition at 200 µg/disc [3] was 22.2 mm, the zone of inhibition at 200 µg/disc [4, 7] was 24.1 mm and the zone of inhibition at 200 µg/disc [4, 8] was 20.3 mm.
`CCCCCCCCCCCC(=O)O` [Laurie acid, reference compound] showed an MIC [1] of 15.6 µg/mL (≈ 0.0779 mM) and an MBC [2] of 31.25 µg/mL (≈ 0.156 mM).
Molecule `CCCCCCCCCCCCOS(=O)(=O)[O-].[Li+]` [Lithium dodecyl sulphate, lithium dodecyl sulphate] has an MIC [1, 5] of 15.6 µg/mL, an MBC [2, 6] of 15.6 µg/mL and an MIC/MBC ratio [2] of 1. It also gave a zone of inhibition at 200 µg/disc [3] of 30 mm, a zone of inhibition at 200 µg/disc [4, 7] of 30.5 mm and a zone of inhibition at 200 µg/disc [4, 8] of 30.2 mm.
With `CCCCS(=O)(=O)[O-].[Na+]` [Sodium 1-butane sulphonate, sodium 1-butane sulphonate] the MIC [1, 5] was > 250 µg/mL, the MBC [2, 6] was > 250 µg/mL and the zone of inhibition at 200 µg/disc [3] was 0 mm. It also gave a zone of inhibition at 200 µg/disc [4, 7] of 0 mm and a zone of inhibition at 200 µg/disc [4, 8] of 0 mm.
For `CCCCCCCCCCS(=O)(=O)[O-].[Na+]` [Sodium 1-decane sulphonate, sodium 1-decane sulphonate], the MIC [1, 5] was > 250 µg/mL, the MBC [2, 6] was > 250 µg/mL and the zone of inhibition at 200 µg/disc [3] was 0 mm. The zone of inhibition at 200 µg/disc [4, 7] was 0 mm and the zone of inhibition at 200 µg/disc [4, 8] was 0 mm.
`CCCCCCCCCCCCS(=O)(=O)[O-].[Na+]` [Sodium 1-dodecanesulphonate, sodium 1-dodecanesulphonate] gave an MIC [1, 5] of 125 µg/mL, an MBC [2, 6] of 250 µg/mL and an MIC/MBC ratio [2] of 0.5. For the same molecule, the zone of inhibition at 200 µg/disc [3] was 18.1 mm, the zone of inhibition at 200 µg/disc [4, 7] was 23 mm and the zone of inhibition at 200 µg/disc [4, 8] was 18.4 mm.
`CCCCCCCS(=O)(=O)[O-].[Na+]` [Sodium 1-heptane sulphonate, sodium 1-heptane sulphonate] was tested, and the MIC [1, 5] was > 250 µg/mL, the MBC [2, 6] was > 250 µg/mL and the zone of inhibition at 200 µg/disc [3] was 0 mm. The zone of inhibition at 200 µg/disc [4, 7] was 0 mm and the zone of inhibition at 200 µg/disc [4, 8] was 10.6 mm.
`CCCCCCCCCCCCCCCCS(=O)(=O)[O-].[Na+]` [Sodium 1-hexadecane sulphonate, sodium 1-hexadecane sulphonate] was tested, and the MIC [1, 5] was 1.95 µg/mL, the MBC [2, 6] was 3.9 µg/mL and the MIC/MBC ratio [2] was 0.5. It also gave a zone of inhibition at 200 µg/disc [3] of 0 mm, a zone of inhibition at 200 µg/disc [4, 7] of 0 mm and a zone of inhibition at 200 µg/disc [4, 8] of 0 mm.
In the case of `CCCCCCCCCS(=O)(=O)[O-].[Na+]` [Sodium 1-nonanesulphonate, sodium 1-nonanesulphonate], the MIC [1, 5] is reported as > 250 µg/mL, the MBC [2, 6] is reported as > 250 µg/mL and the zone of inhibition at 200 µg/disc [3] is reported as 0 mm. It also gave a zone of inhibition at 200 µg/disc [4, 7] of 0 mm and a zone of inhibition at 200 µg/disc [4, 8] of 0 mm.
With `CCCCCCCCCCCCCCCCCCS(=O)(=O)O.[Na]` [Sodium 1-octadecane sulphonic acid, sodium 1-octadecane sulphonic acid] the MIC [1, 5] was 125 µg/mL, the MBC [2, 6] was > 250 µg/mL and the MIC/MBC ratio [2] was <0.5. For the same molecule, the zone of inhibition at 200 µg/disc [3] was 0 mm, the zone of inhibition at 200 µg/disc [4, 7] was 0 mm and the zone of inhibition at 200 µg/disc [4, 8] was 0 mm.
For `CCCCCCCCS(=O)(=O)O.[Na]` [Sodium 1-octane sulphonic acid, sodium 1-octane sulphonic acid], the MIC [1, 5] was > 250 µg/mL, the MBC [2, 6] was > 250 µg/mL and the zone of inhibition at 200 µg/disc [3] was 0 mm. It also gave a zone of inhibition at 200 µg/disc [4, 7] of 0 mm and a zone of inhibition at 200 µg/disc [4, 8] of 0 mm.
For `CCCCCCCCCCCCCC(=O)O` [myristic acid, reference compound], the MIC [1, 5] was > 1000 µg/mL and the MBC [2, 6] was > 1000 µg/mL.
In the case of `CCCCCCCCCCCCCCCC(=O)O` [palmitic acid, reference compound], the MIC [1, 5] is reported as > 1000 µg/mL and the MBC [2, 6] is reported as > 1000 µg/mL.
